Results published in patent publication US20070174925A1, “Treatment models and uses thereof” (priority 2003, published 2007).

Experiments:
zebrafish = test: DMSO tolerance of zebrafish; format: in vivo; settings: final concentration in fish water
Method: A further advantage of zebrafish is the fact they live in water. This makes administration of candidate chemicals easy. Moreover, the inventors have discovered that zebrafish are also DMSO tolerant. This is important as many drugs are dissolved in DMSO. The inventors have established that zebrafish can tolerate 1% DMSO. Thus, a candidate drug or other test substance may be dissolved in DMSO and administered to zebrafish by adding to the fish water to give a final concentration of DMSO of at least up to 1%. This is employed in various preferred aspects and embodiments of the present invention.

larval zebrafish = test: temperature gradient assay of thermal nociception; format: in vivo; settings: for location of fish in temperature gradient versus control fish: fish less than 10 days old, opiate 1 ug/ml or cannabinoid 5 ug/ml in water for 30 minutes at 28° C. before testing, t=10 mins
Method: 1. The ambient environment was prepared through the use of an air handling system to maintain a constant air temperature below 24° C., enabling maintenance of a stable water gradient.
2. A shallow tray was taken of dimensions 2 cm deep, 30 cm long and 20 cm wide. This was filled with oxygenated water from the aquarium, the composition of which is suitable sustain zebrafish. This water was cooled to less than the lowest temperature desired in the gradient.
3. The tray was placed on top of two heating plates: a hot plate, capable of heating to high temperatures, and a hot block. The heights of the blocks were adjusted so that when the tray is placed on top of them the tray lies flat (FIG. 1). It was important to ensure the heating surfaces were symmetrically located under the long axis of the tray to ensure equal heating of both longitudinal halves of the tray.
4. A transparent 30 cm ruler was placed on top of the tray and the boundaries of 4 quadrants marked on it: 0-7.5 cm, 7.5-15 cm, 15-22.5 cm and 22.5-30 cm (FIGS. 2 and 8). These serve to split the gradient up into areas as a means of summarizing temperature choice.
5. Aluminum foil was used to make channels for the fish to swim in. These were water tight and closed at one end and open at the other. […] The open end is necessary so that as water evaporates from the hot end the channels don't dry up. They were then placed in the water with the closed end at the cool end. They were then filled with water. The channels were in the middle of the tray, i.e. not closer to one long side of the tray than the other.
6. The hotplate and hotblock were turned on to achieve a temperature of about 40° C. maintained at the hot end, with the unheated end reaching only 24° C. To measure the temperature at each quadrant boundary, thermometers were placed near the channels at each boundary.
7. When a stable gradient was achieved, fish were taken directly from the fish room (28° C.). As much of the liquid around them as possible was removed. […]
9. At 2, 5 and 10 minutes, the number of fish in each quadrant was counted. […]

[1] = system: fish sensitized with DNCB; test: DNCB-induced hyperalgesia and its rescue, temperature gradient assay; format: in vivo, zebrafish; settings: same DNCB-sensitized fish treated with an opiate and retested; t=5 mins

SMILES | concentration tolerated by zebrafish (zebrafish) [%] | location of fish in temperature gradient versus control fish (larval zebrafish) | location of three week old fish in temperature gradient versus untreated fish (larval zebrafish; three week old fish treated with an opiate) | distribution in gradient of DNCB-sensitized fish after treatment and retest (rescue of hyperalgesia) [1]
C[S+](C)[O-] [DMSO] | 1 |  |  | 
COC(=O)N1CCN(C(=O)Cc2ccc(Cl)c(Cl)c2)C(CN2CCCC2)C1.O=C(O)/C=C/C(=O)O (centres unmarked) [opiate, GR 89696 Fumerate] |  | more often found in water of a higher temperature than control fish | locate to regions of a higher temperature than untreated fish | lose this sensitivity, and their distribution becomes randomized in the gradient
CCCCC/C=C\C/C=C\C/C=C\C/C=C\CCCC(=O)NCCO [endogenous cannabinoid, Anandamide] |  | less aversion to higher temperatures |  | 
